In patent publication US9345705B2, “Compositions and methods for treating cancer” (Merck Sharp & Dohme Corp., priority 2011, dated 2016):
Read-outs that look alike come from different tables or passages of the source.

Legend:
LoVo xenograft tumors [1] = assay: Pharmacodynamic DNA damage analysis (Western blot pCHK1 S345, IHC γH2AX) in xenograft tumors; assay type: in vivo, CD-1 Nu/Nu female mice; conditions: 2 days BID, 60 mpk each agent
Method: CD-1 Nu/Nu female mice aged 5-6 weeks (Charles River Laboratories) were inoculated with 5×10^6 LoVo cells in 100 uL (1:1 Matrigel:PBS) subcutaneously (S.C.) into the right flank. […] Three animals from each group were sacrificed via carbon dioxide inhalation at 2 hours, 24 hours, or 48 hours after the 4th and final dose of the 2 day BID schedule. Tumors were resected, split roughly in half, and stored in 10% formalin for immunohistochemistry (IHC) or at −80° C. for Western blot analysis.

LoVo cells = assay: DNA damage (γH2AX) by flow cytometry in LoVo cells; assay type: cell-based, human
Method: A2058 melanoma cancer cells were treated with 125 nM MK-1775, 150 nM MK-8776, or both. HT-29 colorectal cancer cells were treated with 125 nM MK-1775, 300 nM MK-8776, or both. LoVo colorectal cancer cells were treated with 40 nM MK-1775, 75 nM MK-8776, or both. […] FIG. 2B depicts DNA damage and was scored at either 24 or 48 hours as the percentage of cells positive for the DNA damage marker γH2AX (histone H2AX phosphorylated at serine 139) determined by flow cytometry.

[2] = system: A2058 melanoma cancer cell line; assay: Cell proliferation by ATP vialight, 9-point titrations with fixed concentrations of the complementary drug; assay type: cell-based, human; conditions: for EC50: Homo sapiens, 72 hours
Method: To determine the ability of each drug to potentiate the activity of the other, Applicants performed 9-point titrations of each in the added presence of increasing, but fixed, concentrations of the complimentary drug (FIGS. 1A and 1B). Analysis of cell proliferation was determined after 72 hours (3 days) incubation with either DMSO (as control) or the indicated concentrations of MK-1775 and MK-8776 by ATP vialight (Promega). […] EC50 concentrations were calculated (GraphPad Prism, GraphPad Software, San Diego, Calif.).
Inhibition of WEE1 and CHK1 lead to aberrant CDK1 and/or CDK2 activity, and without wishing to be bound by any theory, this is thought to underlie the potential of either target for having deleterious effects on actively dividing tumor cells. Because of the possible overlap in the MK-1775 and MK-8776 mechanisms of action, Applicants carried out […] synergy experiments.

[3] = system: A2058 melanoma, HT-29 colorectal and LoVo colorectal cancer cells; assay: Growth assay (ATP ViaLight) at concentrations with negligible single-agent effect; assay type: cell-based, human
Method: A2058 melanoma cancer cells were treated with 125 nM MK-1775, 150 nM MK-8776, or both. HT-29 colorectal cancer cells were treated with 125 nM MK-1775, 300 nM MK-8776, or both. LoVo colorectal cancer cells were treated with 40 nM MK-1775, 75 nM MK-8776, or both. FIG. 2A depicts cell proliferation and was scored at either 48 or 72 hours as the percentage of ATP ViaLight® (ViaLight® Assay, Lonza, Basel, Switzerland) of treated samples relative to DMSO treated controls.

LoVo xenograft tumors [4] = assay: Anti-tumor efficacy in xenograft model of human colorectal cancer; assay type: in vivo, CD-1 Nu/Nu female mice; conditions: study day 18, 3 cycles of 2 day BID dosing, 50 mpk, single agent plus vehicle
Method: The anti-tumor efficacy of this combination was assessed in a xenograft model of human colorectal cancer. CD-1 Nu/Nu female mice aged 5-6 weeks (Charles River Laboratories) were inoculated with 5×10^6 LoVo cells in 100 uL (1:1 Matrigel:PBS) S.C. into the right flank. […] Tumor volume and body weights were recorded bi-weekly.

C=CCn1c(=O)c2cnc(Nc3ccc(N4CCN(C)CC4)cc3)nc2n1-c1cccc(C(C)(C)O)n1 [MK-1775, 2-allyl-1-[6-(1-hydroxy-1-methylethyl)pyridin-2-yl]-6-{[4-(4-methylpiperazin-1-yl)phenyl]amino}-1,2-dihydro-3H-pyrazolo[3,4-d]pyrimidin-3-one]
pCHK1 S345 by Western blot at 2 hours after the final dose (LoVo xenograft tumors [1]): transient increase | pCHK1 S345 effect at 24 hours after the final dose (LoVo xenograft tumors [1]): lost | cells with detectable γH2AX (LoVo cells; LoVo cells, 24 hour treatment, 40 nM MK-1775, 75 nM MK-8776, or both): 6% | reduction of MK-1775 EC50 ([2]; A2058 cells, addition of 150 nM MK-8776): 5 fold | EC50 ([2]; A2058 cells, MK-1775 alone, read-out: average EC50 of growth inhibition): 0.225 µM | EC50 ([2]; A2058 cells, addition of 150 nM MK-8776, read-out: average MK-1775 EC50 with added MK-8776): 0.045 µM | shift in the MK-1775 response curve (sham synergy experiment) ([2]; MK-1775 titrated over 75 nM of the labelled drug): did not cause a shift in the response curve | effect in growth assay, single agent ([3]; A2058: 125 nM MK-1775, 150 nM MK-8776, HT-29: 125 nM, 300 nM, LoVo: 40 nM, 75 nM, 48 or 72 hours): negligible effect | T/C (LoVo xenograft tumors [4]): 42%

Cn1cc(-c2cnn3c(N)c(Br)c([C@@H]4CCCNC4)nc23)cn1 [MK-8776, (R)-(−)-6-Bromo-3-(1-methyl-1H-pyrazol-4-yl)-5-piperidin-3-yl-pyrazolo[1,5-a]pyrimidin-7-ylamine]
pCHK1 S345 by Western blot at 2 hours after the final dose (LoVo xenograft tumors [1]): transient increase | pCHK1 S345 effect at 24 hours after the final dose (LoVo xenograft tumors [1]): lost | cells with detectable γH2AX (LoVo cells): 5% | effect on A2058 proliferation by itself [2]: do not effect A2058 proliferation | maximum cell growth inhibition at the highest concentration of MK-8776 [2]: dose-dependent increase | shift in the MK-1775 response curve (sham synergy experiment) [2]: robust potency shift | shift of MK-8776 EC50 curves [2]: leftward shifts in EC50 curves | shift of the MK-1775 response curve caused by added drug [2]: leftward shift of the MK-1775 response curve | effect in growth assay, single agent [3]: negligible effect | T/C (LoVo xenograft tumors [4]): 52%
